Results on three compounds are retold here after ChEMBL document CHEMBL1128985, “Mechanism-based inactivation of -chymotrypsin” (Bioorg Med Chem Lett, 1996).

Assay [1] concerns the target T1, Chymotrypsin-like elastase family member 2A (Sus scrofa) (UniProt P08419).
T1 sequence (whole entry): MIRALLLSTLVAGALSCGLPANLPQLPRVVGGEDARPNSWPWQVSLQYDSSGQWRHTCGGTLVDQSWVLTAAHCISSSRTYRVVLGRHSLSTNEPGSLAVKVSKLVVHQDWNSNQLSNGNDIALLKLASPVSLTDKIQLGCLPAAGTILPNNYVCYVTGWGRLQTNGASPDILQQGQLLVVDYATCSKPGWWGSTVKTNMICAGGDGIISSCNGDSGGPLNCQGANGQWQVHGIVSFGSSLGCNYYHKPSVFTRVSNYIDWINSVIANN
The assay is described as follows: Irreversible inhibitory activity against porcine pancreatic elastase at concentration 4.8 uM; No irreversible inhibitory activity.

Assay [2] addresses Chymotrypsinogen A (Bos taurus) (UniProt P00766). Description: Irreversible inhibitory activity against alpha-chymotrypsin; Inhibition observed.
Assay [3] has the same target. Description: Irreversible inhibitory activity against alpha-chymotrypsin; No inhibition.

A value given as a limit tells only on which side of the number the result lay.

Consider `CC(NC(=O)C(C)NC(=O)CCC(=O)N[C@@H](Cc1ccccc1)C(=O)OC1CC1(Cl)Cl)C(=O)O` (some centres undefined), for which the Activity in assay [1] turned out to be 1.2 mM; in assay [2] it was 500 µM.

As for `O=C(O)CCC(=O)N[C@@H](Cc1ccccc1)C(=O)OC1CC1(Cl)Cl` (some centres undefined), the Activity in assay [3] is less than 1 mM.

In turn, `O=C(O)CCC(=O)N[C@@H](Cc1ccccc1)C(=O)NC1CC1(Cl)Cl` (some centres undefined) had an Activity in assay [3] of 14.5 mM.
